Results published in US5110810A, “Method of using dehydroepiandrosterone and dehydroepiandrosterone-sulfate as inhibitors of platelet aggregation” (Virginia Commonwealth University, priority 1991, dated 1992).
Where two headings read alike, the source gives them in different places.

What was measured:
myocardial infarction = details: large clinical studies; cited from earlier work
platelets [1] = details: cited from earlier work
platelets [2] = details: cited from earlier work; remark: listed apart in the source
platelets [3] = test: In vitro turbidimetric arachidonic acid induced platelet aggregation in platelet rich plasma; format: cell-based, human
From the text: (§1) Referring now to the drawings and, more particularly to FIG. 1, two sample aggregometer tracings are shown which help illustrate the methods used by the inventors to analyze turbidimetric data. Aggregometers are well known research tools and the aggregometer used in the experiments discussed below was a Sienco dual chamber platelet aggregometer. A blood sample which is to be analyzed is drawn from volunteer donors into a 1/8 volume of acid-citrate-dextrose (an anticoagulant used to keep platelets from aggregation during preparative stages). For the in vitro experiments discussed below, the volunteer donors had not taken any medication for ten days prior to submitting the blood sample. The blood is then centrifuged at low speed to sediment red and white blood cells, leaving a fraction enriched in platelets called platelet-rich plasma (PRP). The platelet count was determined electronically using a Coulter counter The final concentration of platelets for a test sample was adjusted to 250,000 platelets/μL fluid by the addition of platelet-poor plasma.
(§2) The aggregometer acts essentially like a spectrophotometer to measure the turbidity of the platelet suspension as a function of the change in light transmission recorded over time. Prior to making turbidimetric measurements, the test samples were heated to 37° C. (body temperature) and stirred at a constant rate. Inhibitors and/or agonists are added to the test sample in very small quantities so as to minimize the dilutional effect. An important object of the present invention was showing that DHEA and DHEA-S are inhibitors of platelet aggregation. Arachidonic acid, available from Biodata Corp of Hatboro, Pennsylvania, is a well known agonist of platelets (i.e., the addition of arachidonic acid to platelets causes aggregation). In the experiments, DHEA and DHEA-S were added to the test sample prior to adding the arachidonic acid so that the platelets could be mixed with the inhibitor before any aggregation initiation caused by the arachidonic acid agonist occurred. Typically, 0.2-0.4 mM arachidonic acid was used to start platelet aggregation.
The aggregometer was calibrated such that the test samples, which contained 250,000 platelets/μl fluid, allowed 0% light transmission while Platelet Poor Plasma, which is essentially devoid of platelets, allowed 100% light transmission. […] The time to the nadir in the aggregometer tracing is called the "LAG" time. After the LAG time has passed, the platelets undergo a rapid phase of aggregation.
(§3) The overall rate of aggregation is determined in part by the LAG time and in part by the rate of the rapid aggregation phase. While the LAG time can easily be determined from the turbidimetric spectra, the rate of rapid aggregation phase is technically difficult to measure. […] Therefore, the experiments discussed below have primarily utilized the T1/2MAX measurement to quantitatively analyze the affect of DHEA and DHEA-S as platelet aggregation inhibitors.
DHEA-S is available from the Sigma Chemical Company in powder form. In the in vitro experiments, blood samples were taken from several young healthy donors taking no medications. Platelet rich plasma was prepared as described above for each test sample and the concentration of platelets in the test samples was adjusted to 250,000 platelets/μl fluid. Aggregation of the platelets in the test samples was initiated with 0.2 to 0.4 […] of arachidonic acid (there was a variability in the amount of arachidonic acid used among donors; however, the amount used was near the minimum that would consistently initiate aggregation). In all aggregation experiments 0.3 cc of platelet rich plasma was used and the test sample volume placed in the aggregometer ranged between 10 μl to 30 μl.
In the first in vitro experiment, different concentrations of DHEA-S were added to test samples and the rate of aggregation was monitored after the addition of arachidonic acid. […]

[4] = tested on: cardiovascular disease mortality; details: increase in (endogenous) DHEA-S level of 100 μg/dL; adjusted for other risk factors; p <0.05; cited from earlier work
[5] = tested on: Thromboxane A2 (TxA2) synthesis, measured as Thromboxane B2 (TxB2); test: Thromboxane production (TxB2 RIA) in platelet rich plasma after arachidonic acid; format: cell-based, human; details: for TxB2 produced: approximately three minutes incubation
From the text: As discussed above, activation of platelets by arachidonic acid typically results in the generation of Thromboxane A2 (TxA2) The extent of TxA2 generated can be measured by radioimmunoassay (RIA) of its stable breakdown product Thromboxane B2 (TxB2) (see, JW Aiken, "Arachidonic Acid Metabolism and the Cardiovascular System" in Platelets and Prostaglandins in Cardiovascular Disease, J Mehta, P Mehta eds. Futura Publishing Co., Mt. Kisco, NY 1981). […] The platelet aggregation reaction was terminated at maximal aggregation or at four minutes, which ever occurred […], by the addition of 10 μM Indomethacin and 5.0 mM ethylenediaminetetraacetic acid (EDTA). Indomethacin and EDTA are commercially available reagents and were obtained from the Sigma Chemical Company. After adding the Indomethacin and EDTA reagents, the cuvettes containing the test sample were immediately placed on ice to cool. The test samples were then spun at a high speed in an Epindorf, Model 5415 micro-centrifuge, available from Brinkman Instruments, to sediment the platelets. Afterwards, plasma was removed from each sample. The TXB2 content was then assayed using commercial RIA kits available from Advanced Magnetics, Inc. of Massachussetts.

intracellular sulfatases = details: through the action of intracellular sulfatases; cited from earlier work
blood platelets = test: Arachidonic acid induced platelet aggregation (turbidimetric) in volunteers taking DHEA; format: in vivo, human
From the text: as §1, §2
The aggregometer was calibrated such that the test samples, which contained 250,000 platelets/μl fluid, allowed 0% light transmission while Platelet Poor Plasma, which is essentially devoid of platelets, allowed 100% light transmission. […]
as §3, with “inhibitors. […]” for “inhibitors.”

atherosclerotic plaque = details: 2% cholesterol diet, balloon abrasion, 0.5% DHEA, cited from earlier work
aortic fatty streaks = details: 0.5% cholesterol and 0.5% DHEA diet; two months; cited from earlier work
[6] = human patients; cited from earlier work
[7] = Serum DHEA and DHEA-S levels by radio-immunoassay (RIA), oral DHEA in normal male volunteers; format: in vivo; details: human, 300 mg/day, DHEA group, 300 mg per day orally (100 mg three times a day), second week, read-out: mean serum DHEA level
Description: In vivo experimentation has been conducted with DHEA using a test group of ten male human being subjects. The in vivo experimentation comprised a double blind placebo controlled trial where ten normal male volunteers whose ages ranged between 22 and 37 years old were randomly divided into two five membered groups where the average age for each group was 25 years. In the in vivo experiment, the DHEA group received 300 mg of DHEA per day in the form of 100 mg capsules taken orally three times a day. The placebo group took placebo capsules which looked identical to the capsules containing DHEA three times a day. The DHEA and placebo capsules were prepared by the investigational pharmacy at the Medical College of Virginia and the code identifying which patients took DHEA and which took placebo was maintained by the pharmacy until the study was completed such that neither the patients nor the investigators were aware of who was taking DHEA or placebo. Each of the participants in the trial were told not to alter their lifestyles for the duration of the study and at the conclusion of the experiment each participant said that they had not done so. […]
Serum DHEA and DHEA-S levels for the patients was determined before the experiment began and at several later times during the experiment. […]

[8] = tested on: glucose-6-phosphate dehydrogenase; details: cited from earlier work
[9] = tested on: oxidant injury in isolated rabbit lungs; details: cited from earlier work

**Q.** With `CC(=O)Oc1ccccc1C(=O)O` [aspirin] as the compound, how does the “incidence of myocardial infarction” value (myocardial infarction) read?
**A.** Its value is “reduce the incidence of myocardial infarction”.

**Q.** And the initial platelet adhesion (platelets [1])?
**A.** The initial platelet adhesion was “does not inhibit initial platelet adhesion”.

**Q.** And the “platelet's role in atherogenesis” value (platelets [1])?
**A.** Its value is “does not appear to have an affect”.

**Q.** With `O=[N+]([O-])c1cc(Cl)cc([N+](=O)[O-])c1` [CDNB, 1-chloro-3,5-dinitrobenzene] as the compound, how does the “GSH content of platelets” value (platelets [2]) read?
**A.** The value was “chemically depletes GSH”.

**Q.** And the “HMPS pathway stimulation by GSH-depleted platelets” value (platelets [2])?
**A.** The value was “do not stimulate the HMPS pathway”.

**Q.** What about the “cytoskeletal protein polymerization of GSH-depleted platelets” value (platelets [2]) of the same compound?
**A.** The value was “faster cytoskeletal protein oxidative polymerization but reversible aggregation”.

**Q.** What about the “sensitivity of GSH-depleted platelets to oxidants” value (platelets [2]) of the same compound?
**A.** Its value is “more sensitive to oxidants”.

**Q.** And the “aggregation of GSH-depleted platelets” value (platelets [2]; higher inducer concentrations)?
**A.** Its value is “aggregate normally”.

**Q.** And the “aggregation of GSH-depleted platelets” value (platelets [2]; low inducer concentrations, depending on the inducer)?
**A.** The value was “increased or depressed aggregation”.

**Q.** What does the source list for `CC12CCC3C(CC=C4CC(OS(=O)(=O)O)CCC43C)C1CCC2=O` (stereo not drawn) [DHEA-S, dehydroepiandrosterone-sulfate]?
**A.** T1/2MAX and LAG vs pre-incubation time (platelets [3]; 3.3 μM DHEA-S (FIG. 5)): the greater the increase in T1/2MAX and LAG times; T1/2MAX and LAG vs baseline (platelets [3]; 3.3 μM DHEA-S, 0 time pre-incubation (FIG. 5)): did increase the T1/2MAX and LAG from baseline; aggregation after 5.0 minute pre-incubation (platelets [3]; 3.3 μM DHEA-S, 5.0 minutes, in most cases (FIG. 6)): complete inhibition of aggregation; time for T1/2MAX and LAG (platelets [3]; 10.0 μM DHEA-S, three minutes incubation): not determinable; platelet aggregation response to increasing DHEA-S concentration (platelets [3]; incubated three minutes before arachidonic acid, most test samples): dose dependent response; T1/2MAX and LAG times with increasing concentrations (platelets [3]; three minutes incubation (FIG. 4)): increase with increasing concentrations of DHEA-S; reduction in mortality from cardiovascular disease [4]: 48%; thromboxane production ([5]; treatment of blood with DHEA-S): reduce thromboxane production

**Q.** For `C[C@]12CC[C@H](O)CC1=CC[C@@H]1[C@@H]2CC[C@]2(C)C(=O)CC[C@@H]12` [DHEA, dehydroepiandrosterone], which “interconversion of DHEA with its sulfate ester” value (intracellular sulfatases) is on record?
**A.** The value was “readily interconvertible”.

**Q.** What about the “aggregation response, fifth DHEA patient” value (blood platelets; 300 mg DHEA per day orally) of the same compound?
**A.** The value was “no change”.

**Q.** What about the “arachidonic acid induced platelet aggregation, one of the four responding subjects” value (blood platelets; 300 mg DHEA per day orally) of the same compound?
**A.** The value was “completely inhibited”.

**Q.** What about the “patients who developed a delay in the rate of aggregation or an increase in the minimal concentration of arachidonic acid required to initiate aggregation” value (blood platelets; 300 mg DHEA per day orally) of the same compound?
**A.** The value was “four of the five patients”.

**Q.** And the “T1/2MAX and LAG curves vs arachidonic acid concentration” value (blood platelets; one DHEA treated patient, second week vs baseline (FIG. 3))?
**A.** The value was “shifted to the right and upward”.

**Q.** And the “platelet aggregation on pre-incubation” value (platelets [3]; 3.3 μM, pre-incubation 0 to 5.0 minutes (FIG. 6))?
**A.** The value was “prolong and eventually inhibit platelet aggregation”.

**Q.** What about the “individual reduction of plaque size vs serum level of DHEA” value (atherosclerotic plaque) of the same compound?
**A.** Its value is “inversely proportional to the serum level of DHEA attained”.

**Q.** And the “reduction in plaque size” value (atherosclerotic plaque; vs rabbits not receiving DHEA)?
**A.** Its value is 50%.

**Q.** And the “reduction in fatty streak formation, chemical analysis” value (aortic fatty streaks)?
**A.** Its value is 30%.

**Q.** What about the “reduction in fatty streak formation, planimetry of the lesions” value (aortic fatty streaks) of the same compound?
**A.** The value was 40%.

**Q.** And the HDL cholesterol levels [6]?
**A.** The HDL cholesterol levels was “without affecting HDL cholesterol levels”.

**Q.** What about the LDL cholesterol levels [6] of the same compound?
**A.** Its LDL cholesterol levels is “lower LDL cholesterol levels”.

**Q.** What about the body fat mass [6] of the same compound?
**A.** The body fat mass was “reduce body fat mass”.

**Q.** What about the muscle mass [6] of the same compound?
**A.** The muscle mass was “increase muscle mass”.

**Q.** And the “serum apilipoprotein B levels” value [6]?
**A.** Its value is “lower serum apilipoprotein B levels”.

**Q.** And the “tissue sensitivity to insulin” value [6]?
**A.** Its value is “not affect tissue sensitivity to insulin”.

**Q.** And the concentration at 336 h [7]?
**A.** The concentration at 336 h was 28.7 ± 13.9 ng/mL.

**Q.** What about the TxB2 produced ([5]; 3.3 μM DHEA) of the same compound?
**A.** The TxB2 produced was 46.0 ± 4.0 pg/mL.

**Q.** What about the TxB2 produced ([5]; 6.7 μM DHEA) of the same compound?
**A.** Its TxB2 produced is 27.3 ± 1.1 pg/mL.

**Q.** What about the TxB2 produced ([5]; 10.0 μM DHEA) of the same compound?
**A.** Its TxB2 produced is 21.8 ± 1.8 pg/mL.

**Q.** And the “TxB2 produced vs concentration” value ([5]; increasing concentrations of DHEA (FIG. 7))?
**A.** Its value is “proportional decline in TxB2 produced”.

**Q.** What about the TxA2 synthesis ([5]; presence of added DHEA (FIG. 7)) of the same compound?
**A.** The TxA2 synthesis was “net inhibition of TxA2 synthesis”.

**Q.** What about the “inhibition of glucose-6-phosphate dehydrogenase” value [8] of the same compound?
**A.** The value was “specific inhibitor”.

**Q.** What about the “thromboxane B2 production” value [9] of the same compound?
**A.** The value was “unchanged”.

**Q.** And the “lung edema and pulmonary hypertension” value ([9]; platelets pretreated with DHEA)?
**A.** The value was “augmentation of the lung edema and pulmonary hypertension”.
